The data set deals with ICR mice. Put plainly: Serum markers after 60 min forced swimming without weight load. The data set is classed as in vivo. Conditions: serum after 60 min forced swimming, day 17, oral 7 mg/kg BW. The method, then:
On day 17 after the administration of the test substance, the experimental animal was forced to swim (for 60 minutes) without a weight load. Then, the experimental animal was anesthetized using an anesthetic prepared by dilution of tribromoethanol with tertiary amyl alcohol and blood was taken from the eye socket. The blood was placed in a serum-separating tube (Becton Dickinson) and left at room temperature for 30 minutes, centrifuged at 3,000 rpm for 20 minutes to separate the serum, and kept at −70° C. until analysis.
Blood urea nitrogen (BUN) and creatinine (CREA) content in the serum and the activities of alanine aminotransferase (ALT), aspartate aminotransferase (AST), creatine kinase (CK) and lactate dehydrogenase (LDH) were measured using a blood biochemistry analyzer (KoneLab 20 XT, Thermo Fisher Scientific). The serum lactate content was measured using a lactate assay kit (Abcam) according to the method proposed by the manufacturer.
The result of measuring the contents of lactate, BUN and CREA and the activities of CK, LDH, ALT and AST in the serum taken after forced swimming for 60 minutes without weight load is shown in Table 19.

The source of these data is patent US20250057864A1, “COMPOSITION FOR IMPROVING EXERCISE PERFORMANCE COMPRISING GYPENOSIDE COMPOUND AS ACTIVE INGREDIENT” (BTC CORPORATION, priority 2022, published 2025).

As for `CC(C)=CCC[C@](C)(O)C1CC[C@]2(C)C1[C@H](O)CC1[C@@]3(C)C[C@@H](O)C(OC4OC(CO)C(O)C(O)C4OC4OC(CO)C(O)C(O)C4O)C(C)(C)C3CC[C@]12C` (stereo partly drawn) [Example 1, Gypenoside L], the ALT turned out to be 100.41 ± 19.75 U/L, the AST turned out to be 160.81 ± 20.53 U/L, the BUN turned out to be 8.15 ± 0.68 mg/dL and the CK was 1896.1 ± 196.4 U/L. Moreover, the CREA is on record as 0.35 ± 0.01 mg/dL and the LDH was 1224.3 ± 162.1 U/L.
